Test results taken from patent US10485902B2, “Antibiotic drug release sheath” (Thomas Jefferson University, priority 2015, dated 2019).
Read-outs that look alike come from different tables or passages of the source. Values belong to the compound of their own block, whether it stands above or below them.

Columns and labels:
[1] = system: osteoblastic (MC3T3-E1) and chondrocytic (N1511) cells; settings: cited from earlier work
[2] = US release of VAN from porous PLA-sealed PEEK block; assay type: physicochemical; settings: 10 mg VAN loaded; 10 min US insonation (5 MHz, 4 MPa)
Procedure: During the first 15 min of immersion, 11 mg and 3 mg of drug were released (due to surface amounts in PLA) from the groups. […] […] (4) Three PLA coatings for US rupture using highly porous PEEK.

[3] = VAN release from PLA-sealed sheaths in spinal levels of a cadaverous rabbit; settings: 4 mg VAN-loaded PLA-sealed sheaths; 20 min, 5 MHz, 3 MPa pk-pk; US parameters not optimized
Procedure: (§1) The first set of experiments uses rabbit carcasses to establish US parameters that reproducibly release the desired amounts of ABX within a mock spinal fusion site. Preliminary tests on such animals in which VAN-loaded (4 mg), PLA-sealed sheaths were placed in 4 spinal levels of a cadaverous rabbit. Site 1 and Site 3 were inoculated with 10^4 CFU S. aureus in 100 μL PBS, and Site 2 and 4 were encased in plastic to collect released VAN. Without any optimization of US parameters, ˜50% of the VAN was released by insonation (20 min, 5 MHz, 3 MPapk-pk) and caused ˜10× less bacterial colonization.

S. aureus [4] = experiment: Bacterial colonization of inoculated spinal sites in a cadaverous rabbit; settings: sites inoculated with 10^4 CFU S. aureus; insonation 20 min, 5 MHz, 3 MPa pk-pk
Procedure: as §1

bacterial lawn = experiment: Passive elution of VAN from allograft bone and bacterial killing (FIG. 6); settings: initial loading 10 mg/ml VAN
Procedure: Antibacterial activity of bone allografts: comparison of a new vancomycin-tethered allograft with allograft loaded with adsorbed vancomycin. This is an example of the elution that can be achieved without enhancement by ultrasound.
(initial loading: 10 mg/ml VAN, FIG. 6). However, a preferred sheath is sealed so that it retains antibiotics without leakage for up to 7 days (to allow for triggered release at any time prior to patient discharge) and then releases >99% of the antibiotics within 24 hrs. of US insonation. Accordingly, release can be determined based on the specific needs of the patient. Therapeutic materials loaded into the sheath may be liquids, solids, gels, or combinations thereof. Release profile of these different materials may require different structures to allow for the appropriate release.

S. aureus [5] = settings: cited from earlier work
bacteria = settings: US plus VAN; cited from earlier work
[6] = US-mediated methylene blue release from PLA-sealed multiport (1 mm) PEEK sheath; assay type: physicochemical
Procedure: Multiple 1 mm holes (left) and one 3 mm hole (right) sheaths were submerged in water and release of methylene blue (MeB) or MeB+VAN was measured spectrophotometrically.
During the first 15 min of immersion, 11 mg and 3 mg of drug were released (due to surface amounts in PLA) from the groups. […] With a 15 min insonation (5 MHz, 3 MPa), 15 mg was released within one hour and the remaining 24 mg of drug was released by 72 hrs^39. (4) Three PLA coatings for US rupture using highly porous PEEK.

Compound: O=C(O)c1cn(C2CC2)c2cc(N3CCNCC3)c(F)cc2c1=O [CIP, ciprofloxacin]
concentration at which toxicity / cell death initiates [1]: 150 to 200 µg/mL

Compound: CN[C@H](CC(C)C)C(=O)N[C@H]1C(=O)N[C@@H](CC(N)=O)C(=O)N[C@H]2C(=O)N[C@H]3C(=O)N[C@H](C(=O)N[C@H](C(=O)O)c4cc(O)cc(O)c4-c4cc3ccc4O)[C@H](O)c3ccc(c(Cl)c3)Oc3cc2cc(c3O[C@@H]2O[C@H](CO)[C@@H](O)[C@H](O)[C@H]2O[C@H]2C[C@](C)(N)[C@H](O)[C@H](C)O2)Oc2ccc(cc2Cl)[C@H]1O [VAN, vancomycin]
released VAN after US insonation [2]: 7.5 mg
VAN released by insonation [3]: ~50%
less bacterial colonization (S. aureus [4]): ~10 ×
bacterial killing (bacterial lawn; especially within the first 48 hr.): significant bacterial killing
elution from allograft bone (bacterial lawn; no ultrasound): rapid passive elution
bacterial levels on metal surface versus 0 and 4 ug/ml VAN (S. aureus [5]; 100 ug/ml of VAN (FIG. 2C)): massive reduction in bacterial levels
reduction of bacterial colonization (S. aureus [5]; 1 hr., 100× MIC): many-fold
further decrease of bacterial numbers by US in the presence of VAN (bacteria): 50-90%
concentration at which toxicity / cell death initiates ([1]; MC3T3-E1 and N1511 cells): above 1 mg/ml
toxicity in words ([1]; MC3T3-E1 and N1511 cells): low toxicity

Compound: NC[C@H]1O[C@H](O[C@H]2[C@H](O)[C@@H](O[C@H]3O[C@H](CO)[C@@H](O)[C@H](N)[C@H]3O)[C@H](N)C[C@@H]2N)[C@H](N)C[C@@H]1O [TOB, tobramycin]
concentration at which toxicity / cell death initiates [1]: ~500 µg/mL

increase in MeB release, US group ([6]; US insonated, over 8 days): 757%
increase in MeB release, non-insonated controls ([6]; no US, at 2 days): 26%
additional MeB release, non-insonated controls ([6]; no US, out to 6 days): no additional release
Compound: CN(C)c1ccc2nc3ccc(=[N+](C)C)cc-3sc2c1 [MeB, methylene blue]
